Active and inactive are the calls of the source.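 The calls were made as follows: active = compounds giving half or more protection of infected cells from virus-caused growth loss, again on retest; inactive = the rest.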
Test system: CEM cells HIV-1 protection, formazan growth assay
Test: NCI AIDS Antiviral Assay
Conditions: for IC50: measured here: growth of uninfected CEM cells
Summary of the method: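 Human CEM cells, uninfected and HIV-1-infected, received five drug concentrations, and growth was read by soluble formazan assay. Compounds giving at least 50% protection were retested; reproducible 100% protection defined confirmed active.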

SMILES	EC50 [µM]	IC50 [µM]	outcome
Clc1ccc(C2N3CCCCC3[C@@H]3c4[nH]c5ccccc5c4CCN23)cc1 (some centres not stated)	> 19.1	> 19.1	
NC1C2C(CC(=O)O)OCC=C3CN4CCC1(C(=O)C(=O)O)C4CC32 (configuration not stated)	> 28.8	> 28.8	
O=C(c1nc2ccccc2[nH]c1=O)C(O)c1ccco1 (configuration not stated)	> 794	380	
CCN(CC)CCOc1ccc(/C(C#N)=C/c2ccc3ccccc3c2)cc1	> 100	0.933	
CC(=O)Nc1ccc(S(=O)(=O)NN(C)S(=O)(=O)c2ccc(C)cc2)cc1	> 18.2	> 18.2	
Cc1ccc(C)c(C(=O)c2ccccc2)c1C(=O)O	> 200	> 200	
CCOC(=O)C(C)P(=O)(OC)OC (configuration not stated)	> 200	> 200	
COC(=O)C(C(=O)C(=O)Nc1ccc([N+](=O)[O-])cc1)c1nc2ccc([N+](=O)[O-])cc2[nH]c1=O (configuration not stated)	> 57.5	> 57.5	
CCc1ccccc1NC(=O)C1=C(C)NC(C)=C(C(=O)Nc2c(CC)cccc2CC)C1c1ccc2c(c1)OCO2 (configuration not stated)	> 33.9	> 33.9	
C=C1C(=O)O[C@H]2C1C[C@@H](O)[C@@]1(C)OC1CC[C@@]1(C)O[C@H]21 (some centres not stated)	> 200	4.47	
O=c1c(O)c(-c2cc(O)c(O)c(O)c2)oc2cc(O)cc(O)c12	> 282	13.8	
Nc1ncnc2c1ncn2C1CC(O)C(CO)(C(F)(F)F)O1 (configuration not stated)	> 200	61.7	
COc1cc(/C=C2\CCc3ccccc3C2=O)cc(OC)c1OC	> 30.9	9.77	
CCOC(=O)C(c1ccsc1)P(=O)(OCC)OCC (configuration not stated)	> 813	28.2	
CC(=O)OC12CCCCC1C1(CCCC1)NC2=O (configuration not stated)			inactive
CCOC(OC1=C(C#N)CCC1)C(C)[Se]c1ccccc1 (configuration not stated)	> 49	26.3	
COC(=O)[C@@H]1CO[C@H](C(C)(C)C)N1C(=O)N1C=CC(=O)C[C@H]1C	> 200	> 200	
O=C(O)c1ccccc1/C=N\NC1=NCCN1	69.2	115	
CC(=O)N(C(=O)CC(=O)N1N=C(c2ccccc2)C(N=Nc2ccccc2[N+](=O)[O-])C1=O)c1ccc(Cl)cc1 (configuration not stated)	166	> 200	
CC#COP(=O)(OCC)OCC	> 251	> 251	
NC(P(=O)(O)O)P(=O)(O)O	> 200	> 200	

SMILES	EC50 [µM]	IC50 [µM]	outcome
NS(=O)(=O)c1ccc(NNc2c3ccccc3nc3c(C(=O)Nc4ccc(S(=O)(=O)Nc5ncccn5)cc4)cccc23)cc1	> 50.1	26.9	
CC1=CCC23C(C1)OC(Br)(C=CC2(C)O)C3(C)C (configuration not stated)			inactive
Cc1ccc(C2CC(=O)CC(c3ccc(C)cc3)C23C(=O)NC(=O)NC3=O)cc1 (configuration not stated)	> 100	64.6	
Cc1c(C)c2c(c(N)c1C#N)C(=O)N(Nc1ccccc1)C2=O	> 200	79.4	
C[n+]1c(-c2ccc(/C=N\NC(=O)N/N=C/c3ccc(-c4cn5ccccc5[n+]4C)cc3)cc2)cn2ccccc21	36.3	47.9	
CN1C(=O)N/C(=C\c2ccc(S(=O)(=O)NN)cc2)C1=O	> 200	> 100	
O=C(O)CCCCCCCCCCCC(=O)O	> 148	> 148	
O=C(CSc1nnc(-c2ccc(N=Cc3ccc(Cl)cc3)cc2)o1)Nc1ccc(Cl)cc1	> 269	141	
Cc1c(-c2coc(-c3ccc(Cl)cc3)n2)c(=O)n(-c2ccccc2)n1C	> 51.3	> 51.3	
O1[SiH]2[SiH]3O[SiH]3[SiH]3O[SiH]3[SiH]12 (configuration not stated)			inactive
S=c1[nH]c2cccc3c2n1C[C@@H]1CCCN1C3	> 32.4	17	
COc1ccc2c3c([nH]c2c1[N+](=O)[O-])C(C)N(Cc1ccc([N+](=O)[O-])cc1)CC3 (configuration not stated)			inactive
CCOC(=O)CSC(=O)NCCCl	> 1100	537	
NCCCc1c(-c2ccccc2)nc(N)[nH]c1=O	> 200	> 200	
CN(/N=C/c1ccccn1)C1=NCCN1	> 200	> 200	
COc1ccc(C2C3=C(N=C4SC(C(C)=O)=C(C)N42)c2ccccc2CC3)cc1 (configuration not stated)	> 200	17.4	
Cc1cc(C)nc(NS(=O)(=O)c2ccc(Nc3c4ccccc4nc4c(C(=O)NC(CO)(CO)CO)cccc34)cc2)n1	> 200	9.33	
CNc1ccc(Cl)cc1S(=O)(=O)c1ccc(OC)cc1	> 200	2.14	
S=c1cn[nH]c2c(Cl)cccc12	> 107	81.3	
NCCCN(CCCCN(CCCN)CCCc1ccccc1)CCCc1ccccc1			inactive
